# Values quoted from earlier work as cited in patent publication US20110047631A1, “HEAT SHOCK PROTEIN DEFICIENCIES AS MODEL SYSTEMS FOR BRAIN PATHOLOGY AND CANCER” (Medical College of Georgia Research Institute Inc., priority 2009, published 2011).
# Key:
# [1] = system: Hsps
# [2] = 8 mg/kg per mice daily dose
# [3] = system: mouse models of Amyotrophic Lateral Sclerosis (ALS)
structure (smiles),measurement,setting,value
CC1=C(O)C(=O)C=C2C1=CC=C1[C@@]2(C)CC[C@@]2(C)[C@@H]3C[C@](C)(C(=O)O)CC[C@]3(C)CC[C@]12C [Celasterol],expression of Hsps,[1],enhance the expression of Hsps
same,toxicity,[2],no toxicity
same,neuronal cell death and life span,[3],block neuronal cell death and extend the life of these mice
